Format in all cases: in vivo
In data set [1] the test system is Lolium perenne (LOLPE). The experiment in a line: Glasshouse assay for herbicidal activity (pre- and post-emergence), percentage phytotoxicity. The note with it: Lolium perenne, Rate 250 g/ha, 100%=total damage, 0%=no damage. The essentials:
(§1)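 Sow seed in standard soil in pots; apply test herbicide after 1 day (PRE) or about 12 days (POST). Grow on in the glasshouse, watering twice daily, cool-season species at 20/16 °C and warm-season at 24/18 °C. Score visible damage (0–100%) at 20 or 15 DAA respectively.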

Data set [2] concerns Echinochloa crus-galli (ECHCG). The data set is described as above. The conditions noted are these: Echinochloa crus-galli, Rate 250 g/ha, 100%=total damage, 0%=no damage. The procedure, abridged:
as §1

The subject of data set [3] is Alopecurus myosuroides (ALOMY). The data set is described as above. The note with it: Alopecurus myosuroides, Rate 250 g/ha, 100%=total damage, 0%=no damage. The procedure, abridged:
as §1

The subject of data set [4] is Avena fatua (AVEFA). The description is as above. The conditions noted are these: Avena fatua, Rate 250 g/ha, 100%=total damage, 0%=no damage. The procedure, abridged:
as §1

Data set [5] deals with Winter Wheat variety 'Hereward'. The experiment in a line: Glasshouse assay for crop safety, post-emergence, +/- safener cloquintocet-mexyl (CQC), percentage phytotoxicity. The note with it: 250 g/ha, evaluated after 13 days, 100=total damage, 0=no damage; for Post-emergence Crop Selectivity, percentage phytotoxicity, Wheat +CQC: with safener cloquintocet-mexyl (CQC) seed treatment 0.5 g/kg seed; for Post-emergence Crop Selectivity, percentage phytotoxicity, Wheat − CQC: without safener cloquintocet-mexyl (CQC). The text has this:
Test—Glasshouse Assay for Crop Safety.
Seeds of the Winter Wheat variety ‘Hereward’ were seed treated with a wettable powder formulation of the cereal herbicide safener, cloquintocet mexyl, at a rate of 0.5 grams per kilogram of dry seed prior to the initiation of glasshouse testing. Three seeds were sown per 1.5 inch plastic pot into a sandy loam soil at a depth of 1 cm, 8 days prior to application of the test compounds and was watered and grown under controlled conditions in a glasshouse (at 24/16° C., day/night; 14 hours light; 65% humidity). The plants were sprayed Post-emergence with an aqueous spray solution derived from the formulation of the technical active ingredient in acetone/water (50:50) solution containing 0.5% Tween 20 (polyoxyethelyene sorbitan monolaurate, CAS RN 9005-64-5).
The test plants were then grown in a glasshouse under controlled conditions (at 24/16° C., day/night; 14 hours light; 65% humidity) and watered twice daily. After 13 days for pre and post-emergence, the test was evaluated (100=total damage to plant; 0=no damage to plant).

Setting [6] is: post-emergence, 360 h, post-emergence, assessed visually 15 DAA, read-out: Post-emergence herbicidal activity (percentage phytotoxicity) LOLPE POST.
Setting [7] is: pre-emergence, 480 h, pre-emergence, assessed visually 20 DAA, read-out: Pre-emergence herbicidal activity (percentage phytotoxicity) LOLPE PRE.
Where [8] appears, read: post-emergence, 360 h, post-emergence, assessed visually 15 DAA, read-out: Post-emergence herbicidal activity (percentage phytotoxicity) ECHCG POST.
Setting [9] is: pre-emergence, 480 h, pre-emergence, assessed visually 20 DAA, read-out: Pre-emergence herbicidal activity (percentage phytotoxicity) ECHCG PRE.
[10] abbreviates: post-emergence, 360 h, post-emergence, assessed visually 15 DAA, read-out: Post-emergence herbicidal activity (percentage phytotoxicity) ALOMY POST.
Where [11] appears, read: pre-emergence, 480 h, pre-emergence, assessed visually 20 DAA, read-out: Pre-emergence herbicidal activity (percentage phytotoxicity) ALOMY PRE.
Setting [12] is: post-emergence, 360 h, post-emergence, assessed visually 15 DAA, read-out: Post-emergence herbicidal activity (percentage phytotoxicity) AVEFA POST.
Setting [13] is: pre-emergence, 480 h, pre-emergence, assessed visually 20 DAA, read-out: Pre-emergence herbicidal activity (percentage phytotoxicity) AVEFA PRE.

Like-named read-outs stand apart in the source and are kept apart here.

This note sets out measurements from patent publication US10206394B2, “Herbicidal compounds” (Syngenta Participations AG, priority 2014, dated 2019).

On to `CC#Cc1cc(C)c(C2C(=O)CC(CC(=O)NCC(=O)C(C)(C)C)C2=O)c(C)c1` (centres unmarked) [Compound A59], for which the pest or weed control at 250 g/ha in data set [1] (setting [6]) was determined as 70%; in data set [1] (setting [7]) it was 70%; in data set [2] (setting [8]), 90%; in data set [2] (setting [9]), 90%; in data set [3] (setting [10]), 90%; in data set [3] (setting [11]), 100%. The pest or weed control at 250 g/ha in data set [4] (setting [12]) worked out at 90%; in data set [4] (setting [13]) it was 70%. In addition, the “Post-emergence Crop Selectivity, percentage phytotoxicity, Wheat +CQC” value in data set [5] amounted to 50%. The “Post-emergence Crop Selectivity, percentage phytotoxicity, Wheat − CQC” value in data set [5] is 80%.

Regarding `Cc1cc(-n2cc(Cl)cn2)cc(C)c1C1C(=O)CC(CC(=O)NC(C)(C)C)C1=O` (centres unmarked) [Compound A67, N-tert-butyl-2-[3-[4-(4-chloropyrazol-1-yl)-2,6-dimethyl-phenyl]-2,4-dioxo-cyclopentyl]acetamide], the pest or weed control at 250 g/ha stood at 70% in data set [1] (setting [6]); 90% in data set [1] (setting [7]); 100% in data set [2] (setting [8]); 90% in data set [2] (setting [9]); 80% in data set [3] (setting [10]); 100% in data set [3] (setting [11]). The pest or weed control at 250 g/ha was 80% in data set [4] (setting [12]) and 90% in data set [4] (setting [13]). For the same compound, the “Post-emergence Crop Selectivity, percentage phytotoxicity, Wheat +CQC” value in data set [5] is 0%. Besides, the “Post-emergence Crop Selectivity, percentage phytotoxicity, Wheat − CQC” value in data set [5] was 70%.

`Cc1cc(-n2cc(Cl)cn2)cc(C)c1C1C(=O)CC(CC(=O)NC2CCCC2)C1=O` (centres unmarked) [Compound A70]: the pest or weed control at 250 g/ha came out at 70% in data set [1] (setting [6]); 70% in data set [1] (setting [7]); 90% in data set [2] (setting [8]); 100% in data set [2] (setting [9]); 90% in data set [3] (setting [10]); 70% in data set [3] (setting [11]). For the same compound, the pest or weed control at 250 g/ha in data set [4] (setting [12]) and in data set [4] (setting [13]) was 70% in each case. For the same compound, the “Post-emergence Crop Selectivity, percentage phytotoxicity, Wheat +CQC” value in data set [5] was 20%. Also, the “Post-emergence Crop Selectivity, percentage phytotoxicity, Wheat − CQC” value in data set [5] is on record as 70%.

As for `Cc1cc(-n2cc(Cl)cn2)cc(C)c1C1C(=O)CC(CC(=O)NC2(c3ccccn3)CC2)C1=O` (centres unmarked) [Compound A73], the pest or weed control at 250 g/ha amounted to 40% in data set [1] (setting [6]); 30% in data set [1] (setting [7]); 90% in data set [2] (setting [8]); 90% in data set [2] (setting [9]); 70% in data set [3] (setting [10]); 70% in data set [3] (setting [11]). Moreover, the pest or weed control at 250 g/ha in data set [4] (setting [12]) was 80%; in data set [4] (setting [13]), 10%. Besides, in data set [5], the “Post-emergence Crop Selectivity, percentage phytotoxicity, Wheat +CQC” value came out at 20%. Also, in data set [5], the “Post-emergence Crop Selectivity, percentage phytotoxicity, Wheat − CQC” value was 80%.

Turning to `Cc1cc(-c2ccc(F)cn2)cc(C)c1C1C(=O)CC(CC(=O)NC(C)(C)C)C1=O` (centres unmarked) [Compound A80], the pest or weed control at 250 g/ha in data set [1] (setting [6]), in data set [1] (setting [7]), in data set [2] (setting [8]), in data set [2] (setting [9]), in data set [3] (setting [10]) and in data set [3] (setting [11]) was 100% in each case. The figures for the pest or weed control at 250 g/ha in data set [4] (setting [12]) and in data set [4] (setting [13]) were 100% and 90%, respectively. Further, the “Post-emergence Crop Selectivity, percentage phytotoxicity, Wheat +CQC” value in data set [5] was 20%. Also, in data set [5], the “Post-emergence Crop Selectivity, percentage phytotoxicity, Wheat − CQC” value is reported as 70%.

Take `Cc1cc(-c2ncc(F)cc2F)cc(C)c1C1C(=O)CC(CC(=O)NC(C)(C)C)C1=O` (centres unmarked) [Compound A85]: the pest or weed control at 250 g/ha was 90% in data set [1] (setting [6]); 100% in data set [1] (setting [7]); 100% in data set [2] (setting [8]); 90% in data set [2] (setting [9]); 100% in data set [3] (setting [10]); 100% in data set [3] (setting [11]). Also, the pest or weed control at 250 g/ha is 100% in data set [4] (setting [12]) and 80% in data set [4] (setting [13]). In data set [5], the “Post-emergence Crop Selectivity, percentage phytotoxicity, Wheat +CQC” value was determined as 10%. Further, the “Post-emergence Crop Selectivity, percentage phytotoxicity, Wheat − CQC” value in data set [5] is 80%.

Consider `Cc1cc(-c2ncc(F)cn2)cc(C)c1C1C(=O)CC(CC(=O)NCc2cccc(Cl)c2)C1=O` (centres unmarked) [Compound A138], for which the pest or weed control at 250 g/ha in data set [1] (setting [6]) was 100%; in data set [1] (setting [7]) it was 100%; in data set [2] (setting [8]) it was 100%; in data set [2] (setting [9]) it was 100%; in data set [3] (setting [10]), 90%; in data set [3] (setting [11]), 90%. The pest or weed control at 250 g/ha in data set [4] (setting [12]) and in data set [4] (setting [13]) was 100% each time. The “Post-emergence Crop Selectivity, percentage phytotoxicity, Wheat +CQC” value in data set [5] is recorded as 40%. The “Post-emergence Crop Selectivity, percentage phytotoxicity, Wheat − CQC” value in data set [5] came out at 70%.

With `Cc1cc(-c2cncnc2)cc(C)c1C1C(=O)CC(CC(=O)NCc2cccc(Cl)c2)C1=O` (centres unmarked) [Compound A142], the pest or weed control at 250 g/ha amounted to 20% in data set [1] (setting [6]); 20% in data set [1] (setting [7]); 60% in data set [2] (setting [8]); 30% in data set [2] (setting [9]); 0% in data set [3] (setting [11]); 0% in data set [4] (setting [13]). The “Post-emergence Crop Selectivity, percentage phytotoxicity, Wheat +CQC” value in data set [5] was determined as 50%. Besides, in data set [5], the “Post-emergence Crop Selectivity, percentage phytotoxicity, Wheat − CQC” value stood at 70%.

As to `Cc1cc(-c2ncc(F)cn2)cc(C)c1C1C(=O)CC(CC(=O)NCc2cccc(C(F)(F)F)c2)C1=O` (centres unmarked) [Compound A145], the pest or weed control at 250 g/ha in data set [1] (setting [6]) was determined as 90%; in data set [1] (setting [7]), 100%; in data set [2] (setting [8]) it was 100%; in data set [2] (setting [9]) it was 100%; in data set [3] (setting [10]), 100%; in data set [3] (setting [11]) it was 100%. Moreover, the pest or weed control at 250 g/ha in data set [4] (setting [12]) and in data set [4] (setting [13]) was 100% each time. The “Post-emergence Crop Selectivity, percentage phytotoxicity, Wheat +CQC” value in data set [5] worked out at 30%. Besides, the “Post-emergence Crop Selectivity, percentage phytotoxicity, Wheat − CQC” value in data set [5] was found to be 60%.

Consider `Cc1cc(-c2ccc(Cl)cn2)cc(C)c1C1C(=O)CC(CC(=O)NCc2cccc(C(F)(F)F)c2)C1=O` (centres unmarked) [Compound A146], for which the pest or weed control at 250 g/ha in data set [1] (setting [6]) was 100%; in data set [1] (setting [7]) it was 90%; in data set [2] (setting [8]), 100%; in data set [2] (setting [9]), 90%; in data set [3] (setting [10]), 100%; in data set [3] (setting [11]), 80%. Moreover, the figures for the pest or weed control at 250 g/ha in data set [4] (setting [12]) and in data set [4] (setting [13]) were 100% and 90%, respectively. In addition, in data set [5], the “Post-emergence Crop Selectivity, percentage phytotoxicity, Wheat +CQC” value was 50%. Further, the “Post-emergence Crop Selectivity, percentage phytotoxicity, Wheat − CQC” value in data set [5] is given as 80%.
